Laboratory results from US20150282486A1, “RICE SEED TREATMENT COMPOSITION” (SYNGENTA PARTICIPATIONS AG, priority 2014, published 2015).

Assays:
rice seed variety CL 151 [1] = experiment: Greenhouse trial of zinc-treated rice seed in Zn deficient soil mix: germination rate; format: in vivo; settings: plus insecticide/fungicide mixture, Zn deficient potting mix 1.97 ppm Zn
Excerpt: (§1) For the inventive composition, ZnEDTA (in the form of Dissolvine E-Zn-15 having 3% free zinc, Akzo Nobel, IL., USA) was applied as a 20% w/w aqueous solution at rates of 1.18 1.47 and 1.76 g ZnEDTA/kg seed. This was accomplished by using 8, 10 or 12 fl oz per cwt.
(§2) For the first comparative composition, ZnSO4 was applied as a 24.7% solution at a rate of 1.90 g ZnSO4/kg seed (in the form of ZINC PLUS having 10% free zinc, DeltAg, MS, USA). This was accomplished by using 10 fl oz per cwt.
(§3) For the second comparative composition, ZnO was applied as a 32.50% aqueous suspension at a rate of 2.00 g ZnO/kg seed (in the form of ZINCHE ST having 26% free zinc, Drexel Chemical Co, TN, USA). This was accomplished by using 8 fl oz per cwt.
(§4) This was done by preparing a mixture of each zinc-containing compound with the insecticide/fungicide mixture and adding water to make a total of 25 fl oz per ctw (thiamethoxam at 1.80 g/kg seed, fludioxonil at 0.015 g/kg seed, azoxystrobin at 0.07 g/kg seed, metalaxyl-M at 0.09 g/kg seed and sedaxane at 0.01 g/kg seed; commercial products available as e.g. CRUISER MAXX and VIBRANCE, both Syngenta Crop Protection, NC, USA). Also evaluated were untreated control and seeds having only the conventional insecticide and fungicide treatment.
(§5) For all test groups, one (1) kg batches of rice seed variety CL 151 (Clearfield Seed, Horizon Ag, TN, USA) were treated on a Hege seed treater (Wintersteiger AG, Austria) using a standard protocol. The seeds were allowed to dry.
Standard commercial greenhouse containers, 10 cm diameter by 9 cm deep, were filled with 350 cc of a rooting media mix consisting of 33% (v/v) Zn deficient soil collected in Arkansas, USA and then sterilized in an autoclave and 66% (v/v) commercial planting mix (NB peat, Fafard, MA, USA). Analysis of the potting mix confirmed that the zinc levels were low, at 1.97 ppm and pH levels were <7. […]
Ten days after planting (10 DAP) a drip irrigation emitter was installed on each pot. […] Germination rates were recorded and at 11 DAP rice seedlings were thinned to 5 plants per pot. […]

rice seed variety CL 151 [2] = experiment: Greenhouse trial of zinc-treated rice seed in Zn deficient soil mix: total zinc uptake in dry above ground plant tissue; format: in vivo; settings: dry above ground tissue harvested 29 DAP, plus insecticide/fungicide mixture
Excerpt: as §1, §2, §3, §4, §5
Standard commercial greenhouse containers, 10 cm diameter by 9 cm deep, were filled with 350 cc of a rooting media mix consisting of 33% (v/v) Zn deficient soil collected in Arkansas, USA and then sterilized in an autoclave and 66% (v/v) commercial planting mix (NB peat, Fafard, MA, USA). Analysis of the potting mix confirmed that the zinc levels were low, at 1.97 ppm and pH levels were <7.
Prior to planting the soil was moistened with 200 ml tap water per pot. Eight seeds were sown per pot by placing them on soil surface then lightly covering with 0.5 cm of loose peat. […] Pots were transferred to greenhouse and maintained at 30/24° C. day/night temperature with 16 hours of supplemental high pressure sodium light. All pots were lightly watered manually every 2 to 3 days to prevent dehydration of the germination zone.
Ten days after planting (10 DAP) a drip irrigation emitter was installed on each pot. The irrigation system was set to deliver 100 ml of tap water each morning and again each evening. Germination rates were recorded and at 11 DAP rice seedlings were thinned to 5 plants per pot. By 17 DAP rice plants were in the V3 growth stage. At 18 DAP nitrogen fertilizer (urea) was added to the irrigation water at 200 ppm for the duration of trial. At 22 DAP rice plants were in the V4 growth stage with first tiller forming.
At 29 DAP rice plants were in the V5 growth stage with 3 tillers. The above ground plant tissue was harvested and placed in paper bags. Bags were placed in an oven set at 100° C. for 72 hours to dry. The dry tissue was removed from the bags and weighed. Samples of the dry tissue were analyzed for total zinc uptake (MicroMacro International, Inc. Labs, GA, USA).

rice seed = settings: 1.4 g ZnEDTA/kg rice seed; cited from earlier work

O=C(O)CN(CCN(CC(=O)O)CC(=O)O)CC(=O)O.[Zn] [ZnEDTA, zinc ethylenediaminetetraacetic acid]
Germination rate (%) (rice seed variety CL 151 [1]; 1.47 g Zn complex/kg seed): 45%
Zinc uptake (ppm) (rice seed variety CL 151 [2]; 1.18 g Zn complex/kg seed): 275.47 ppm
Zinc uptake (ppm) (rice seed variety CL 151 [2]; 1.47 g Zn complex/kg seed): 304.74 ppm
Zinc uptake (ppm) (rice seed variety CL 151 [2]; 1.76 g Zn complex/kg seed): 316.00 ppm
Outcome of rice seed treatment (rice seed): not successful

[O]=[Zn] [ZnO, Zinc oxide, reference compound]
Germination rate (%) (rice seed variety CL 151 [1]; 2.00 g Zn complex/kg seed): 42%
Zinc uptake (ppm) (rice seed variety CL 151 [2]; 2.00 g Zn complex/kg seed): 253.65 ppm

O=S(=O)([O-])[O-].[Zn+2] [ZnSO4, Zinc sulfate, reference compound]
Germination rate (%) (rice seed variety CL 151 [1]; 1.90 g Zn complex/kg seed): 43%
Zinc uptake (ppm) (rice seed variety CL 151 [2]; 1.90 g Zn complex/kg seed): 237.50 ppm
